Common to all, as to assay: TR-FRET enzymatic activity assay against PI3K isoforms
Common to all, as to assay type: biochemical

One assay has as its target PI3Kγ (Homo sapiens (Human), UniProt P48736). The following applies: 2×Km ATP, 30 minutes at 25° C. The source says:
(§1) The compounds of formula (I) were characterized for their enzymatic activity against the PI3K isoforms. […] TR-FRET monitored the formation of 3,4,5-inositol triphosphate molecule that competed with fluorescently labeled PIP3 for binding to the GRP-1 pleckstrin homology domain protein.

In a further assay the target is PI3Kβ (Homo sapiens (Human), UniProt P42338). Particulars: PI3Kβ, TR-FRET, 2×Km ATP, 30 minutes at 25° C.
PI3Kβ, sequence (P42338 whole entry): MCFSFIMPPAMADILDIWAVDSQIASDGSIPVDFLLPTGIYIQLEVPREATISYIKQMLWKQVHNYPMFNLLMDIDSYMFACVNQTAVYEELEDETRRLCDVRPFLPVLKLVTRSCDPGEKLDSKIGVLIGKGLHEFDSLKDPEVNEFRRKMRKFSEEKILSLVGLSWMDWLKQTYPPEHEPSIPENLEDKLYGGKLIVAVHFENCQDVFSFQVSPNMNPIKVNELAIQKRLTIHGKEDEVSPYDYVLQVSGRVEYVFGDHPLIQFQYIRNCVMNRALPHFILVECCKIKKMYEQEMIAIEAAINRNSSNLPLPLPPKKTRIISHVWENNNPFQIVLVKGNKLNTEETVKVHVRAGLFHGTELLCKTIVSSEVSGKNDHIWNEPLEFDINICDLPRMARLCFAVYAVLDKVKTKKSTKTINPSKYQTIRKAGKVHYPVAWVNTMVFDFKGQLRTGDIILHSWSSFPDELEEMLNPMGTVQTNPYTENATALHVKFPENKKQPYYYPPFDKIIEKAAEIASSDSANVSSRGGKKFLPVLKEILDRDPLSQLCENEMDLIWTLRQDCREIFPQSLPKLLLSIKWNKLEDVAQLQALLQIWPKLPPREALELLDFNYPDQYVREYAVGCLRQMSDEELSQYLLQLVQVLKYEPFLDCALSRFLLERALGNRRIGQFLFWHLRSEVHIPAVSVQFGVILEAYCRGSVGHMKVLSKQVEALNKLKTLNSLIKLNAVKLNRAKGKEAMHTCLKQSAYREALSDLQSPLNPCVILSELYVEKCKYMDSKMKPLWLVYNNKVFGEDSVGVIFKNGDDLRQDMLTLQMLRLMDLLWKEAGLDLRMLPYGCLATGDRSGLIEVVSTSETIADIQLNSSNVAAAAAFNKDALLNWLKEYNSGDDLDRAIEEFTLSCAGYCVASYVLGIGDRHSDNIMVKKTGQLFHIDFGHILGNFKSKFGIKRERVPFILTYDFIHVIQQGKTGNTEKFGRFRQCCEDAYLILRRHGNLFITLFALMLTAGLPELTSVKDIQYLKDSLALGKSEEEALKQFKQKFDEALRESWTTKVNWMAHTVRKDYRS
PI3Kβ, sequence (P27986 whole entry partner): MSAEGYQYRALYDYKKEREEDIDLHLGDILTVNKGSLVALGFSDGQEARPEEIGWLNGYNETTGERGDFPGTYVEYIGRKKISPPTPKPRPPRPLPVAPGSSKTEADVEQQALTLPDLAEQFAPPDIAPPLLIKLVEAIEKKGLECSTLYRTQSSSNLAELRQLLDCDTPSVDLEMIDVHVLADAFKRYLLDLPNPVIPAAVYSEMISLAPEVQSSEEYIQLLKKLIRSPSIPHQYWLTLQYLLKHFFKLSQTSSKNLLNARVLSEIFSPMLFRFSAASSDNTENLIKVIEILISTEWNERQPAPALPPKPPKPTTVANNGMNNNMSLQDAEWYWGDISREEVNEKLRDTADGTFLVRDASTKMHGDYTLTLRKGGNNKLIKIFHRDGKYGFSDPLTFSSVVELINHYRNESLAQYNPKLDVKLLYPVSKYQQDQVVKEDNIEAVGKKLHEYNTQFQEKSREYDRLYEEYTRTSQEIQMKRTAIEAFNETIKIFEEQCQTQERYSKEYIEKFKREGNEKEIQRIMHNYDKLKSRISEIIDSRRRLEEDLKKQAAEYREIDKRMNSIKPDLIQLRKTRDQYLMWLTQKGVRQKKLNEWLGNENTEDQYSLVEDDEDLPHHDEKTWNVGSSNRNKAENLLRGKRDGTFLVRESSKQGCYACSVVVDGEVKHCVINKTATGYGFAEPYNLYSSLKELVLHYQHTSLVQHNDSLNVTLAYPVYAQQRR
From the text: as §1

In a further assay the target is PI3Kδ (Homo sapiens (Human), UniProt O00329). Particulars: 2×Km ATP, 30 minutes at 25° C.
PI3Kδ, sequence (O00329 whole entry): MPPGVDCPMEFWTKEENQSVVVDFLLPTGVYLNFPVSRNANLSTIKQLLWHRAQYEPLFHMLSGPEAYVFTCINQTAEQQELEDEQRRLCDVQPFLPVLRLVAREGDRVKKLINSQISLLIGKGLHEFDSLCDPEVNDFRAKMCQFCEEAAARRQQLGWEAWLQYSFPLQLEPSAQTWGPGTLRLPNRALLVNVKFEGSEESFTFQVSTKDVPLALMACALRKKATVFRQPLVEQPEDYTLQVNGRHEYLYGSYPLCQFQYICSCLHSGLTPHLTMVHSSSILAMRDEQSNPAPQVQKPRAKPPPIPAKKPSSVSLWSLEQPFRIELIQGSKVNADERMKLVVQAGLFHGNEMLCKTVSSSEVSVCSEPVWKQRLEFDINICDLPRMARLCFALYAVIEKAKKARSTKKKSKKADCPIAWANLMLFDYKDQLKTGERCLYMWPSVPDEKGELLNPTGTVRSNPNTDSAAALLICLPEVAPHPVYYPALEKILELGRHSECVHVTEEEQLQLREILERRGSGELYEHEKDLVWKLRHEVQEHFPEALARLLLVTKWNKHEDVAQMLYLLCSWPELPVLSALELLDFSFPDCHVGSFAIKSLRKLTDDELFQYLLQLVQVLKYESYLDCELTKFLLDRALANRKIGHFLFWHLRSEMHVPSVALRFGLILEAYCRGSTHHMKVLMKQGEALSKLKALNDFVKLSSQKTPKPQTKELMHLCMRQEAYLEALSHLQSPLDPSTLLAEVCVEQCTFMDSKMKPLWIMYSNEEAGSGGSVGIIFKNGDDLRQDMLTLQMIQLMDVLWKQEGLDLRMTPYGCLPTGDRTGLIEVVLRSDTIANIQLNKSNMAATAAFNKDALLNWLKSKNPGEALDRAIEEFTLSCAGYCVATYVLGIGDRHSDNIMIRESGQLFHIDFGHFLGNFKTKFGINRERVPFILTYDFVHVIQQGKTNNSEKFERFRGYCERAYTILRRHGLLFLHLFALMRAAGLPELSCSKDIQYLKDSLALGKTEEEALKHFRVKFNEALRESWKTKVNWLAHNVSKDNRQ
PI3Kδ, sequence (P27986 whole entry partner): as the sequence (P27986 whole entry partner) above
From the text: as §1

pIC50: −log10 of the molar value. A value given as a limit tells only on which side of the number the result lay.

PI3Kγ, sequence (P48736 whole entry, the tested form may be a part, canonical isoform): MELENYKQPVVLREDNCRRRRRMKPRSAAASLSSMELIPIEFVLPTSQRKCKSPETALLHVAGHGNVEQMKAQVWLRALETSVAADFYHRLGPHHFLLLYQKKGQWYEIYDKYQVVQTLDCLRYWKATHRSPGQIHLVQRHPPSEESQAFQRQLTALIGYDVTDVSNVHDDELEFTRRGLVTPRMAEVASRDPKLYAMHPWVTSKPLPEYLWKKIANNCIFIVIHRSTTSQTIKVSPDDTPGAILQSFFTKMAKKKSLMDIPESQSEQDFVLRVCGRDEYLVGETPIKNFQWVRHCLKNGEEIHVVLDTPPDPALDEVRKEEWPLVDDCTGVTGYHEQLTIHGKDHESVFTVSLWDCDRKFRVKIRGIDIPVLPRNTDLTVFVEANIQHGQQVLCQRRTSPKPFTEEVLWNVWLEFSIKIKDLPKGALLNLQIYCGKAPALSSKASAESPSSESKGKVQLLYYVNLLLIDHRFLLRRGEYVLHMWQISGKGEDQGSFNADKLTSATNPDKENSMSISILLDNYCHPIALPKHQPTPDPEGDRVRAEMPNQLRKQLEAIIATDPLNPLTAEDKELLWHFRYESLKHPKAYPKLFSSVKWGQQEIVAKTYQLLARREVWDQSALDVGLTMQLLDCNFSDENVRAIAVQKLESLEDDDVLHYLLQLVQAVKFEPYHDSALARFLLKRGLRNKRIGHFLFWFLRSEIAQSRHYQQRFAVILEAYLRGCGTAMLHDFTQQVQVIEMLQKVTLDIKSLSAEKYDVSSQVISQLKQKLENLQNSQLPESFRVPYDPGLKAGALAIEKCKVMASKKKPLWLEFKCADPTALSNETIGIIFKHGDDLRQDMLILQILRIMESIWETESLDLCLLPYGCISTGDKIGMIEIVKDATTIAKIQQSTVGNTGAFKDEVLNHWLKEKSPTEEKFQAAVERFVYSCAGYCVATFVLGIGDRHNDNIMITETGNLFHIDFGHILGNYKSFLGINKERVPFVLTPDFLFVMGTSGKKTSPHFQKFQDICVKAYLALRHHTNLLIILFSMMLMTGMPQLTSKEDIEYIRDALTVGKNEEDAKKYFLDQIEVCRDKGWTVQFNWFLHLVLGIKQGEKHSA

In the case of `C[C@H](Nc1ncnc(N)c1C#N)c1nc2cccc(Cl)c2c(=O)n1C[C@@H](O)CO` [Compound 142], the pIC50 is no more than 5.00 on PI3Kγ, 6.28 at PI3Kβ and 7.06 against PI3Kδ.

`C[C@H](Nc1ncnc(N)c1C#N)c1nc2cccc(Cl)c2c(=O)n1C[C@H](O)CO` [Compound 143]: the pIC50 is 5.37 against PI3Kγ, 6.43 at PI3Kβ and 7.47 at PI3Kδ.

Source of the values: US11021467B2, “Phosphatidylinositol 3-kinase inhibitors” (Gilead Sciences, Inc., priority 2014, dated 2021).
